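96-well plates; 48 h exposure; 5 concentrations. Endpoints by linear interpolation between flanking doses. Not reached: highest tested concentration assigned. GI50 = concentration required for 50% inhibition of growth. Definition used: TGI = concentration required for complete inhibition of growth.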
Legend:
Assay in all cases: NCI tumour cell line growth inhibition, 48 h
A549 NSCLC = test system: A549 NSCLC
EKVX NSCLC = test system: EKVX NSCLC
HCT-15 colon = test system: HCT-15 colon
M14 melanoma = test system: M14 melanoma
MALME-3M melanoma = test system: MALME-3M melanoma
NCI-H23 lung = test system: NCI-H23 lung
OVCAR-5 ovarian = test system: OVCAR-5 ovarian
OVCAR-8 ovarian = test system: OVCAR-8 ovarian
SF-268 CNS = test system: SF-268 CNS
SK-MEL-28 melanoma = test system: SK-MEL-28 melanoma
SK-MEL-5 melanoma = test system: SK-MEL-5 melanoma
HT29 colon = test system: HT29 colon

Compound	TGI (A549 NSCLC) [µM]	TGI (EKVX NSCLC) [µM]	TGI (HCT-15 colon) [µM]	TGI (M14 melanoma) [µM]	TGI (MALME-3M melanoma) [µM]	TGI (NCI-H23 lung) [µM]	TGI (OVCAR-5 ovarian) [µM]	TGI (OVCAR-8 ovarian) [µM]	TGI (SF-268 CNS) [µM]	TGI (SK-MEL-28 melanoma) [µM]	TGI (SK-MEL-5 melanoma) [µM]	TGI (HT29 colon) [µM]	GI50 (A549 NSCLC) [µM]	GI50 (EKVX NSCLC) [µM]	GI50 (MALME-3M melanoma) [µM]	GI50 (NCI-H23 lung) [µM]
CC(=O)OC/C=C\Cn1nc(Br)c(=O)[nH]c1=O	32.3	34.5	27.2	30.9	31.1	32.5	31.8	34.7	31.5	32	30.9					
CC1(C)Cc2c(C#N)c(N)c3c(c2CO1)C(=O)OC3=O	> 100	> 100	> 100	> 100	> 100	> 100	> 100	> 100	> 100	> 100	> 100	> 100				
Cc1[nH]nc(N)c1C(N)=O	> 100	> 100	> 100	> 100	> 100	> 100	> 100	> 100	> 100	> 100	> 100	> 100				
COC(=O)c1c(O)ccc2c1c1c(n2Cc2ccc(Cl)cc2Cl)C(=O)c2ccccc2C1=O	19.3	24.5	18.5	29	34.2	24.8	42.9	21.4	24.6	30	27.1	32.1				
COc1cccc(/C=N/[N-]C(N)=O)c1[O-].[Ni+2].[OH3+].c1ccc(-c2ccccn2)nc1	> 100	> 100	> 100	> 100	> 100	> 100	> 100	> 100	> 100	> 100	> 100	> 100				
COc1cc(S(=O)(=O)Nc2ccc(-c3csc(N)n3)cc2)ccc1Cl	39.6	30.2	43.6	35	31.4	40.1	40.4	40.7	76.6	48.5	30.6	35.8				
O=C(N/N=C/c1cc(Cl)cc(Cl)c1[O-])c1ccccc1O.O=C(N/N=C/c1cc(Cl)cc(Cl)c1[O-])c1ccccc1O.[Zn+2]	13.1	9.88	15.6	6.88	8.56	11.2	14.6	3.38	17.7	14.8	2.94	13.7	0.527	0.68	1.37	0.56
OC1CCOc2ccccc21 (stereo not given)	> 100	> 100	> 100	> 100	> 100	> 100	> 100	> 100	> 100	> 100	> 100	> 100				
CC(=O)NC(c1nc2cc(C)c(C)cc2[nH]1)c1nc2cc(C)c(C)cc2[nH]1	65.2	84.8	60	> 100	83.7	> 100	> 100	47.5	> 100	53.4	32	78.1				
S=C1CC(c2ccccc2)Sc2ccccc2N1 (stereo not given)		> 100	> 100	> 100	> 100	> 100	> 100	> 100	> 100	> 100	> 100	> 100				
NC(=O)CCC(N=C(N)c1csc(C2OC(CO)C(O)C2O)n1)C(=O)O (stereo not given)	> 100	> 100	> 100	> 100	> 100	> 100	> 100	> 100	> 100	> 100	> 100	> 100				
CCOC(=O)c1c(Cl)nc2ccccc2c1N=[N+]=[N-]	> 100	> 100	34.6	34.1	> 100	> 100	41.1		30.5	> 100	> 100	34.2				

Reference: PubChem BioAssay (NCI)
